Reference: ChEMBL document CHEMBL5150077, “Identification of TUL01101: A Novel Potent and Selective JAK1 Inhibitor for the Treatment of Rheumatoid Arthritis” (J Med Chem, 2022)
Calls of active or inactive are those of the source. The rule behind the calls is not given here.

How the values were obtained:
[1] = Metabolic stability in human hepatocytes assessed as intrinsic clearance at 1 uM incubated for 90 mins by LC/MS/MS analysis; assay type: ADME, cell-based, Hepatocyte
in vivo [2] = settings: C57BL/6, mouse, po, 15 mg/kg
[3] = molecular target: Tyrosine-protein kinase JAK1 (Homo sapiens, UniProt P23458); test: Inhibition of recombinant human JAK1 using MGEEPLYWSFPAKKK as substrate incubated for 40 mins in presence of Mg/ATP mixture by [gamma p33]-ATP based scintillation counting method
Chain of Tyrosine-protein kinase JAK1 (P23458 whole entry): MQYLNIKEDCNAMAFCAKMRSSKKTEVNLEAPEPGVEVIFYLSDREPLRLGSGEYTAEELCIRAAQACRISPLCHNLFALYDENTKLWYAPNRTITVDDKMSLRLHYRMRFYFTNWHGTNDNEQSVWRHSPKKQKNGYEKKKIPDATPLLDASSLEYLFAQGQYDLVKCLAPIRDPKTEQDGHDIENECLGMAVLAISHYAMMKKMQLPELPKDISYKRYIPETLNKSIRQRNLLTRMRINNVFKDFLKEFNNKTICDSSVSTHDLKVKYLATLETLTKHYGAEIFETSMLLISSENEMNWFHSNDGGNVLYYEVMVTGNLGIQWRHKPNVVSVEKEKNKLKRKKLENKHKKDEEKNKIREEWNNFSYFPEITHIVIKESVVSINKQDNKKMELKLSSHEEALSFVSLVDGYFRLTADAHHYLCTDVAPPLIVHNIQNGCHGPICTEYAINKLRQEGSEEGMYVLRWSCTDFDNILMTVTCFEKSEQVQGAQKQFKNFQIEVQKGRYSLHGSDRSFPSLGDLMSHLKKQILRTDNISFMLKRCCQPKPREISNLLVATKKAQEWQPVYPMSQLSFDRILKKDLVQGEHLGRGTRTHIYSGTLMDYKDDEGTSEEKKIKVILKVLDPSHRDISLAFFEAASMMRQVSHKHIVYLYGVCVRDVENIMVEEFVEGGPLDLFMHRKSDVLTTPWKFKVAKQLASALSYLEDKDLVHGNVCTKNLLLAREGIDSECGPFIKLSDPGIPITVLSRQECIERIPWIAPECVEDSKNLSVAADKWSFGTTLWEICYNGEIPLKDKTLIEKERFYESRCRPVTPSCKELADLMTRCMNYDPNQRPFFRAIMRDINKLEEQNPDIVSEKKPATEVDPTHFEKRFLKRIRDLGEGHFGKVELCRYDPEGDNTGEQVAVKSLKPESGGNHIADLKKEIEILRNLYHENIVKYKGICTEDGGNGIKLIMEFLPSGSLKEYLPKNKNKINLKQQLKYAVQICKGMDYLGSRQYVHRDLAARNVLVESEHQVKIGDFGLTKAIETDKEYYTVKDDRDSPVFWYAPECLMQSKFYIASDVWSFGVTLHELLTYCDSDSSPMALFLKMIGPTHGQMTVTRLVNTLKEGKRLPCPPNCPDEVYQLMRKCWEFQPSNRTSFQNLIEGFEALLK

[4] = Plasma protein binding in mouse assessed as unbound fraction at 2 uM incubated for 4 hrs by LC/MS/MS based balanced dialysis method
[5] = molecular target: T1, Tyrosine-protein kinase JAK3 (Homo sapiens, UniProt P52333); test: Inhibition of recombinant human JAK3 using GGEEEEYFELVKKKK as substrate incubated for 40 mins in presence of Mg/ATP mixture by [gamma p33]-ATP based scintillation counting method
T1 sequence (P52333 whole entry): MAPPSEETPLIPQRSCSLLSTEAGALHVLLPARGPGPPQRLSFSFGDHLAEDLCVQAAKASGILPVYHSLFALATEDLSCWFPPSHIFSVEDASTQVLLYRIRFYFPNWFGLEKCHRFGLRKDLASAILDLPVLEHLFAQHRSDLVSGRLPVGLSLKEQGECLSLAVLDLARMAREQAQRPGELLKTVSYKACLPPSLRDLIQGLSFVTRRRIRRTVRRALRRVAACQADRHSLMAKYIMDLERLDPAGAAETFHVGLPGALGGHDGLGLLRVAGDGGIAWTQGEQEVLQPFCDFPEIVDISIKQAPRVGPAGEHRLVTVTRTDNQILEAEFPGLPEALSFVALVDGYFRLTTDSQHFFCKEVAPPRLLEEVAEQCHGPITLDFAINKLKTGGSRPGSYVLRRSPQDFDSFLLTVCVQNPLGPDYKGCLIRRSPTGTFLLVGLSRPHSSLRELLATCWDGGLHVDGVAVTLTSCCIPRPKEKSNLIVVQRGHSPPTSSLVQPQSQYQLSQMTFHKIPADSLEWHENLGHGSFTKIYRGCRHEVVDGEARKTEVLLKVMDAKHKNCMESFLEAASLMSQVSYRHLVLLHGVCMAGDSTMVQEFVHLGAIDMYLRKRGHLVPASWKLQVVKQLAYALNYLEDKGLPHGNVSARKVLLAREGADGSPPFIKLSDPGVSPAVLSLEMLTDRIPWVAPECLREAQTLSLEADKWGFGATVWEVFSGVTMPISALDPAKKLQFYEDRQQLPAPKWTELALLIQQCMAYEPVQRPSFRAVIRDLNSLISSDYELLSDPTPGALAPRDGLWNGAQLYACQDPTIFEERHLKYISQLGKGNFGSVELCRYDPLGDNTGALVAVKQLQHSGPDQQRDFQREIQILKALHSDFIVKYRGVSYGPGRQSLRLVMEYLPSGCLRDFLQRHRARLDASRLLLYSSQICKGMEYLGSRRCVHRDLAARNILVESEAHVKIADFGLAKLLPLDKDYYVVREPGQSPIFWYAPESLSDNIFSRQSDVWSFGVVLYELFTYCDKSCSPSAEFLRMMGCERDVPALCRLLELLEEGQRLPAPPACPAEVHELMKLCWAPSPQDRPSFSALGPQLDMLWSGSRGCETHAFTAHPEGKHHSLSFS

Cytochrome P450 2C19 = Cytochrome P450 2C19 (Homo sapiens, UniProt P33261); test: Inhibition of CYP2C19 in human liver microsomes incubated in presence NADPH by LC-MS/MS analysis
Chain of Cytochrome P450 2C19 (P33261 whole entry): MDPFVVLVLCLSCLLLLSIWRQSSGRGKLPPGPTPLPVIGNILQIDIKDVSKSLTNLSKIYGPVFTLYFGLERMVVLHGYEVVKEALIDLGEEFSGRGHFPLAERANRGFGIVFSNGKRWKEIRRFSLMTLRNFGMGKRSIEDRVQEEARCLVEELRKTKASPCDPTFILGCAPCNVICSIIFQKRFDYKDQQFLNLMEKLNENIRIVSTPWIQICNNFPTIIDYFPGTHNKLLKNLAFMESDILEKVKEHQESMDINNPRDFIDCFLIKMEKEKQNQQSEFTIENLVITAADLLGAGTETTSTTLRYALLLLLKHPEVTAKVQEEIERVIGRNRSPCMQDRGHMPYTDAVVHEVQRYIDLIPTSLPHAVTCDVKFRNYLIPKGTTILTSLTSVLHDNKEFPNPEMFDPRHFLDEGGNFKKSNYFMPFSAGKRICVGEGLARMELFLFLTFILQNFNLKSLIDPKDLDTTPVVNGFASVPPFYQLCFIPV

[6] = Elimination half life in C57BL/6 mouse at 15 mg/kg, po measured for 24 hrs by LC/MS/MS analysis; assay type: ADME, organism-based; settings: in vivo, read-out: beta t1/2 (converted)
Cytochrome P450 2D6 = Cytochrome P450 2D6 (Homo sapiens, UniProt P10635); test: Inhibition of CYP2D6 in human liver microsomes incubated in presence NADPH by LC-MS/MS analysis
Chain of Cytochrome P450 2D6 (P10635 whole entry): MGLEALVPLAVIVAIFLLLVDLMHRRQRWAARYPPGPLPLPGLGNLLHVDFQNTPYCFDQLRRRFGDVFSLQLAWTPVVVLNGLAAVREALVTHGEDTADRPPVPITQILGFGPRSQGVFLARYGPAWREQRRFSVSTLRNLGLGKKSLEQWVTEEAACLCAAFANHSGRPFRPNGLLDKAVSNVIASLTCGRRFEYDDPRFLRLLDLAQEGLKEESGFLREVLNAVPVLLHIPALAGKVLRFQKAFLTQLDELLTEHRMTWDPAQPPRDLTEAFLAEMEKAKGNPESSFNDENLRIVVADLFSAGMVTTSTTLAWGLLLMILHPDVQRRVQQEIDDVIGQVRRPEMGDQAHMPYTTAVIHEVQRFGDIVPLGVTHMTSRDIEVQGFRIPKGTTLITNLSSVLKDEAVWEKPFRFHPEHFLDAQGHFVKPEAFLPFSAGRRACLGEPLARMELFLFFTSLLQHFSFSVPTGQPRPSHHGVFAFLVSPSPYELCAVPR

Mus musculus = test: Antiarthritic activity in collagen-induced rheumatoid arthritis DBA/1 mouse model assessed as recovery of body weight at 15 mg/kg, po BID administered for 14 days starting from 7 days before immunization to 21 days after immunization and measured on day 22 post immunization; assay type: functional, organism-based; settings: time 14.0 day
[7] = Plasma protein binding in rat assessed as unbound fraction at 2 uM incubated for 4 hrs by LC/MS/MS based balanced dialysis method
[8] = Microsomal stability in mouse liver microsomes assessed as intrinsic clearance at 1 uM incubated for 60 mins in presence of NADPH regenerating system by LC-MS/MS analysis; assay type: ADME, Microsome; settings: read-out: CLH
[9] = Metabolic stability in mouse hepatocytes assessed as intrinsic clearance at 1 uM incubated for 90 mins by LC/MS/MS analysis; assay type: ADME, cell-based, Hepatocyte
in vivo [10] = settings: C57BL/6, mouse, po, 15 mg/kg; remark: listed apart in the source
Homo sapiens = organism: Homo sapiens; test: Selectivity index, ratio of IC50 for inhibition of recombinant human TYK2 to IC50 for inhibition of recombinant human JAK1
[11] = Volume of distribution at steady state in C57BL/6 mouse at 15 mg/kg, po or 2 mg/kg, iv measured for 24 hrs by LC/MS/MS analysis; assay type: ADME, organism-based; settings: in vivo
Cytochrome P450 2C8 = molecular target: T2, Cytochrome P450 2C8 (Homo sapiens, UniProt P10632); test: Inhibition of CYP2C8 in human liver microsomes incubated in presence NADPH by LC-MS/MS analysis
T2 sequence (P10632 whole entry): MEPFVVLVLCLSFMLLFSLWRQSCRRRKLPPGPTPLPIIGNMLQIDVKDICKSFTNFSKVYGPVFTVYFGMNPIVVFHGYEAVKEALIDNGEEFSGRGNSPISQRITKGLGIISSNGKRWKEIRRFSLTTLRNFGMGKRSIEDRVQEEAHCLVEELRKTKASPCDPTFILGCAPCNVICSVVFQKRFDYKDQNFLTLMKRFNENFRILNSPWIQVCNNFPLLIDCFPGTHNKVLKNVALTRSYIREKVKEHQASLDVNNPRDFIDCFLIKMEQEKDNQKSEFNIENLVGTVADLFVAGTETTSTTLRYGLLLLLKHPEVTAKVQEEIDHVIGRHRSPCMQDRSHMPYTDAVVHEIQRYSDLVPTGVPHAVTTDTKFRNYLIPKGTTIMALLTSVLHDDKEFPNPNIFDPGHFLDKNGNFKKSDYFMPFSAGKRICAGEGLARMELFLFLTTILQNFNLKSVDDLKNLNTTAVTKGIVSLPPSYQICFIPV

[12] = molecular target: Tyrosine-protein kinase JAK2 (Homo sapiens, UniProt O60674); test: Inhibition of recombinant human JAK2 using KTFCGTPEYLAPEVRREPRILSEEEQEMFRDFDYIADWC as substrate incubated for 40 mins in presence of Mg/ATP mixture by [gamma p33]-ATP based scintillation counting method
Chain of Tyrosine-protein kinase JAK2 (O60674 whole entry): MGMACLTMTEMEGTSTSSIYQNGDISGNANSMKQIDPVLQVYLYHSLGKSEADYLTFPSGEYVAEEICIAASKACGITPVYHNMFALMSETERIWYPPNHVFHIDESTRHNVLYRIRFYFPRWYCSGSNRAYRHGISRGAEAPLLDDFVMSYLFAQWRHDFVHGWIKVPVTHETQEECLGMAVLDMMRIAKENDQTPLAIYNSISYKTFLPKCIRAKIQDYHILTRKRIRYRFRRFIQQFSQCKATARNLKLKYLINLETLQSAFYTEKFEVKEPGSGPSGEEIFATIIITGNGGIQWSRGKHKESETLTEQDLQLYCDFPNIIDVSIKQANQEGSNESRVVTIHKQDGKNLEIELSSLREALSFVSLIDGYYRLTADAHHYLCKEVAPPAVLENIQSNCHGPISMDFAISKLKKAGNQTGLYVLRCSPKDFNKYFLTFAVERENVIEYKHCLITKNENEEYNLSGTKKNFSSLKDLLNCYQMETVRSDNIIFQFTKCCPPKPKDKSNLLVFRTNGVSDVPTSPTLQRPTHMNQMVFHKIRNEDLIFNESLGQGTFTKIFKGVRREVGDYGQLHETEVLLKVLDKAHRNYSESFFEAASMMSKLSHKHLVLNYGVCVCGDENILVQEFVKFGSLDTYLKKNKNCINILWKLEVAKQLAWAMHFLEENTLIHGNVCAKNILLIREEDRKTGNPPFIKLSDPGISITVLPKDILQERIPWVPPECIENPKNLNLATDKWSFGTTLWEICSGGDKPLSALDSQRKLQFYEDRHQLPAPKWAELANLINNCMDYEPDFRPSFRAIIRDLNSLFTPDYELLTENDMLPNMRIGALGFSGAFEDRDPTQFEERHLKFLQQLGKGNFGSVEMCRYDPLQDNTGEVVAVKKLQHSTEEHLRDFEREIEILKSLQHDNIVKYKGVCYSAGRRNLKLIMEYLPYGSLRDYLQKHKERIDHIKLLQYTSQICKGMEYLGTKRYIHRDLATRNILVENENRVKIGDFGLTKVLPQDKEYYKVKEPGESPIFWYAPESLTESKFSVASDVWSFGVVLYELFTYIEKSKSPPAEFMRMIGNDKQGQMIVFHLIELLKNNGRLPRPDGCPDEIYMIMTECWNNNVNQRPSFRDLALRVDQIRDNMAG

[13] = Clearance in C57BL/6 mouse at 2 mg/kg, iv measured for 24 hrs by LC/MS/MS analysis; assay type: ADME, organism-based; settings: in vivo

| IC50 [3] | IC50 [5] | IC50 (Cytochrome P450 2C19) | IC50 (Cytochrome P450 2D6) | Ratio IC50 (Homo sapiens) | IC50 (Cytochrome P450 2C8) | IC50 [12] | SMILES | CLH [1] | bioavailability at 24 h (in vivo [2]) | fraction unbound at 4 h, 2 µM [4] | half-life [6] | Activity (Mus musculus) | fraction unbound at 4 h, 2 µM [7] | microsomal CLint at 1 µM [8] | CLH [9] | Cmax at 24 h (in vivo [10]) | Vdss [11] | clearance [13] |
| --- | --- | --- | --- | --- | --- | --- | --- | --- | --- | --- | --- | --- | --- | --- | --- | --- | --- | --- |
| 0.003 µM | 1 µM | 4.93 µM | > 100 µM | 8.7 | > 100 µM | 0.04 µM | O=C(Nc1nc2cccc(C3CCC4(CC3)CCN(C(=O)[C@@H]3CC3(F)F)CC4)n2n1)C1CC1 | < 6.4 µL/min/mg | 50.1% | 0.057 | 4.74 h | Active | 0.067 | 20.8 µL/min/mg | 40.6 µL/min/mg | 7.38 µM | 0.942 L/kg | 0.894 L/h/kg |
| 0.031 µM | 5.76 µM | 64.3 µM | > 100 µM | 2.2 | > 100 µM | 0.324 µM | O=C(Nc1nc2cccc(C3CCC4(CC3)CCN(C(=O)[C@@H]3CC3(F)F)C4)n2n1)C1CC1 (stereo partly specified) | < 6.4 µL/min/mg | – | 0.112 | – | – | 0.205 | 46.5 µL/min/mg | 134.3 µL/min/mg | – | – | – |
| – | – | – | – | – | – | – | O=C(Nc1nc2cccc(C3CCC4(CC3)CN(C(=O)[C@@H]3CC3(F)F)C4)n2n1)C1CC1 | < 6.4 µL/min/mg | – | 0.259 | 2.01 h | Active | 0.26 | < 9.6 µL/min/mg | 9.1 µL/min/mg | – | 1.61 L/kg | 1.33 L/h/kg |

| SMILES | IC50 [3] | IC50 [5] | IC50 (Cytochrome P450 2C19) | IC50 (Cytochrome P450 2D6) | Ratio IC50 (Homo sapiens) | IC50 (Cytochrome P450 2C8) | IC50 [12] | CLH [1] | bioavailability at 24 h (in vivo [2]) | fraction unbound at 4 h, 2 µM [4] | half-life [6] | Activity (Mus musculus) | fraction unbound at 4 h, 2 µM [7] | microsomal CLint at 1 µM [8] | CLH [9] | Cmax at 24 h (in vivo [10]) | Vdss [11] | clearance [13] |
| --- | --- | --- | --- | --- | --- | --- | --- | --- | --- | --- | --- | --- | --- | --- | --- | --- | --- | --- |
| O=C(Nc1nc2cccc([C@H]3CC[C@@H](NC(=O)[C@@H]4CC4(F)F)CC3)n2n1)C1CC1 | 0.002 µM | […] | 75 µM | > 100 µM | […] | > 100 µM | […] | […] | 66.6% | […] | […] | – | 0.156 | […] | […] | 25.7 µM | 0.501 L/kg | […] |
